Laboratory results from patent US9226905B2 (SAMSUNG ELECTRONICS CO., LTD., priority 2011, dated 2016).

Columns and labels:
[1] = system: blood creatine kinase level; assay: Measurement of blood creatine kinase (CK) level; details: administered for 3 months
[2] = Water intake of mice on administration of autoclaved DDS; details: male mice, at 4-day intervals for 3 months
[3] = system: bacterial growth; assay: Bacterial growth inhibitory activity of autoclaved DDS; assay type: cell-based; details: DDS added to bacterial medium and autoclaved, compared with control
Description: Specifically, DDS was added to a bacterial medium and autoclaved, and then compared with a control.

[4] = system: grip strength of mice; assay: Measurement of grip strength; assay type: in vivo, C57BL/6J mice; details: 2 mg/kg, 3 months
Description: To measure the grip strength of the mice, a grip strength meter (Bioseb) was used. The grip strength of the mice was measured by positioning the mice to grab the grid plate with the forelimbs, slowly pulling the tail in a horizontal direction, and determining the value at the time at which the forelimbs were detached from the grid.

[5] = system: soleus (SOL) and extensor digitorum longus (EDL) muscle weight; assay: Muscle weight of SOL and EDL; assay type: in vivo, C57BL/6J mice; details: aged mice (23-month-old and 30-month-old), female and male, 2 mg/kg, 3 months
Description: (§1) In order to separate muscle from the mice, the mice were anesthetized by injection with sodium pentobarbital (100 mg/kg body weight). One soleus (SOL) and one extensor digitorum longus (EDL) were carefully separated from the hindlimb of each mouse, so that the muscle was not damaged, and the weight of each of the separated muscles was measured.

[6] = system: gastrocnemius (GA) and tibialis anterior (TA) muscle weight; assay: Muscle weight of GA and TA; assay type: in vivo, C57BL/6J mice; details: aged mice (23-month-old and 30-month-old), female and male, 2 mg/kg, 3 months
Description: as §1, with “bodyweight).” for “body weight).”, “gastrocnemius (GA)” for “soleus (SOL)”, “tibialis anterior (TA)” for “extensor digitorum longus (EDL)”

[7] = system: mouse muscles (SOL and EDL); assay: Measurement of twitch isometric force; assay type: in vivo, C57BL/6J mice; details: SOL and EDL separated from treated mice, 0.2 Hz (100V) twitch stimulation
Description: One end of the tendons was anchored to a tissue bath, which was filled with Ringer's solution and to which oxygen was smoothly supplied, and the other end was anchored to a FT03 isometric force transducer (Grass instruments, West Warwick, USA). The twitch and tetanus of the muscle were adjusted by the intensity of electric stimulation. The muscle was stabilized in Ringer's solution for 10 minutes, and then an experiment for muscle contraction function was carried out. To maximize the function of the muscle, the length of the muscle showing the highest response at 0.2 Hz (100V), twitch stimulation, was measured and assigned as Lo.

[8] = system: mouse muscles (SOL and EDL); assay: Measurement of tetanus isometric force; assay type: in vivo, C57BL/6J mice; details: SOL 150 Hz, 100V, 800 ms, EDL 100 Hz, 400 ms
From the text: In the muscle contraction stimulation system, SOL muscle formed the peak plateau under the conditions of 150 Hz, 100 V and 800 ms. […] In this Example, the mice used in Example 6 were used. The mice were rested for a sufficient time after twitch stimulation, and then tetanic stimulation was applied to the mice. As stimulation at the time of formation of a stable graph in which the peak forms the plateau, 150 Hz (100V, 800 ms stimulation time) was used for Soleus, and 100 Hz (100V, 400 ms stimulation time) was used for EDL. Each of these values was used as the peak Isometric force for each muscle, and the results are plotted in unit of mN and shown in FIG. 9.

[9] = mouse, in vivo, 2 mg/kg
[10] = system: Caenorhabditis elegans; details: reported; cited from earlier work
[11] = female mice, vs negative control

SMILES | blood creatine kinase level [1, 11] | water intake [2] | bacterial growth inhibitory activity [3] | grip strength ([4]; 18-month-old female mice) | grip strength ([4]; 23-month-old or older female mice) | grip strength ([4]; male mice) | weight of EDL [5] | weight of SOL [5] | weight of GA [6] | weight of TA [6] | muscle twitch force (reduced with aging) [7] | muscle tetanic force (reduced with aging) [8] | water intake vs control group [9] | increase of life span of Caenorhabditis elegans [10] | blood creatine kinase level ([1]; 18-month-old or older mice, 2 mg/kg)
CC(C)(C)NCC(O)c1cc(Cl)c(N)c(Cl)c1 (stereo not shown) [Clenbuterol] | equal to or higher than that of the negative control | increased |  |  |  |  |  |  |  |  |  |  |  |  | 
Nc1ccc(S(=O)(=O)c2ccc(N)cc2)cc1 [DDS, diaminodiphenylsulfone] | significantly reduced |  | maintained | not distinct | significantly restored | increased | restored | restored | restored | restored | effectively restored | effectively restored | did not significantly differ | 20-30% | effectively decreases
